According to patent US20170050957A1, “4-AMINO-6-(HETEROCYCLIC)PICOLINATES AND 6-AMINO-2-(HETEROCYCLIC)PYRIMIDINE-4-CARBOXYLATES AND THEIR USE AS HERBICIDES” (Dow AgroSciences LLC, priority 2013, published 2017):
Read-outs that look alike come from different tables or passages of the source.

Key:
[1] = test system: Key Broadleaf Weed and Crop Species; assay: Post-emergent Test II herbicidal activity (Table 15); assay type: in vivo; settings: post-emergence, 336 h, 14 d; for pest or weed control at 35 g/ha: 35 g ai/ha; for pest or weed control at 70 g/ha: 70 g ai/ha; for pest or weed control at 140 g/ha: 140 g ai/ha
Outline: (§1)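 Plants at first-second true leaf stage, grown 7-21 d in greenhouse (~15 h photoperiod, 23-29 °C day), were track-sprayed at 187 L/ha with compound in acetone/DMSO/water/isopropanol/crop oil/Triton X-155 at a high rate plus 1/2× to 1/16× dilutions. Injury scored visually after 14 d versus untreated plants, 0 (none) to 100% (complete kill).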

[2] = test system: Key Grass and Sedge Weeds as well as Grass Crops; assay: Post-emergent Test II herbicidal activity (Table 16); assay type: in vivo; settings: post-emergence, 336 h, 14 d; for pest or weed control at 35 g/ha: 35 g ai/ha; for pest or weed control at 70 g/ha: 70 g ai/ha; for pest or weed control at 140 g/ha: 140 g ai/ha
Outline: as §1

[3] = Abutilon theophrasti, velvetleaf (Abutilon theophrasti), read-out: Visual Growth Reduction (%) 14 Days After Application, ABUTH
[4] = Amaranthus retroflexus, redroot pigweed (Amaranthus retroflexus), read-out: Visual Growth Reduction (%) 14 Days After Application, AMARE
[5] = Brassica napus, oilseed rape, canola (Brassica napus), read-out: Visual Growth Reduction (%) 14 Days After Application, BRSNN
[6] = Chenopodium album, lambsquarters (Chenopodium album), read-out: Visual Growth Reduction (%) 14 Days After Application, CHEAL
[7] = Euphorbia heterophylla, wild poinsettia (Euphorbia heterophylla), read-out: Visual Growth Reduction (%) 14 Days After Application, EPHHL
[8] = Helianthus annuus, sunflower (Helianthus annuus), read-out: Visual Growth Reduction (%) 14 Days After Application, HELAN
[9] = Cyperus esculentus, yellow nutsedge (Cyperus esculentus), read-out: Visual Growth Reduction (%) 14 Days After Application, CYPES
[10] = Echinochloa crus-galli, barnyardgrass (Echinochloa crus-galli), read-out: Visual Growth Reduction (%) 14 Days After Application, ECHCG
[11] = Oryza sativa, rice (Oryza sativa), read-out: Visual Growth Reduction (%) 14 Days After Application, ORYSA
[12] = Setaria faberi, giant foxtail (Setaria faberi), read-out: Visual Growth Reduction (%) 14 Days After Application, SETFA
[13] = Triticum aestivum, wheat, spring (Triticum aestivum), read-out: Visual Growth Reduction (%) 14 Days After Application, TRZAS
[14] = Zea mays, maize, corn (Zea mays), read-out: Visual Growth Reduction (%) 14 Days After Application, ZEAMX

Question: With `COC(=O)c1nc(-c2ccc3cc[nH]c3c2)c(F)c(N)c1Cl` [Compound 1.08] as the compound, how does the pest or weed control at 35 g/ha [1, 3] read?
Answer: 85 to 94%

Question: What about the pest or weed control at 70 g/ha [1, 3] of the same compound?
Answer: 95 to 100%

Question: And the pest or weed control at 140 g/ha [1, 3]?
Answer: 95 to 100%

Question: And the pest or weed control at 35 g/ha [1, 4]?
Answer: 95 to 100%

Question: What about the pest or weed control at 70 g/ha [1, 4] of the same compound?
Answer: 95 to 100%

Question: What about the pest or weed control at 140 g/ha [1, 4] of the same compound?
Answer: 95 to 100%

Question: What about the pest or weed control at 35 g/ha [1, 5] of the same compound?
Answer: 45 to 59%

Question: What about the pest or weed control at 70 g/ha [1, 5] of the same compound?
Answer: 75 to 84%

Question: What about the pest or weed control at 140 g/ha [1, 5] of the same compound?
Answer: 85 to 94%

Question: What about the pest or weed control at 35 g/ha [1, 6] of the same compound?
Answer: 95 to 100%

Question: What about the pest or weed control at 70 g/ha [1, 6] of the same compound?
Answer: 95 to 100%

Question: And the pest or weed control at 140 g/ha [1, 6]?
Answer: 95 to 100%

Question: What about the pest or weed control at 35 g/ha [1, 7] of the same compound?
Answer: 95 to 100%

Question: And the pest or weed control at 70 g/ha [1, 7]?
Answer: 95 to 100%

Question: What about the pest or weed control at 140 g/ha [1, 7] of the same compound?
Answer: 95 to 100%

Question: And the pest or weed control at 35 g/ha [1, 8]?
Answer: 85 to 94%

Question: And the pest or weed control at 70 g/ha [1, 8]?
Answer: 95 to 100%

Question: What about the pest or weed control at 140 g/ha [1, 8] of the same compound?
Answer: 95 to 100%

Question: What about the melting point of the same compound?
Answer: 66 to 69 °C

Question: And the pest or weed control at 35 g/ha [2, 9]?
Answer: 0 to 29%

Question: And the pest or weed control at 70 g/ha [2, 9]?
Answer: 0 to 29%

Question: And the pest or weed control at 140 g/ha [2, 9]?
Answer: 0 to 29%

Question: And the pest or weed control at 35 g/ha [2, 10]?
Answer: 85 to 94%

Question: And the pest or weed control at 70 g/ha [2, 10]?
Answer: 95 to 100%

Question: And the pest or weed control at 140 g/ha [2, 10]?
Answer: 95 to 100%

Question: And the pest or weed control at 35 g/ha [2, 11]?
Answer: 0 to 29%

Question: And the pest or weed control at 70 g/ha [2, 11]?
Answer: 0 to 29%

Question: And the pest or weed control at 140 g/ha [2, 11]?
Answer: 0 to 29%

Question: And the pest or weed control at 35 g/ha [2, 12]?
Answer: 0 to 29%

Question: And the pest or weed control at 70 g/ha [2, 12]?
Answer: 60 to 74%

Question: And the pest or weed control at 140 g/ha [2, 12]?
Answer: 75 to 84%

Question: And the pest or weed control at 35 g/ha [2, 13]?
Answer: 0 to 29%

Question: And the pest or weed control at 70 g/ha [2, 13]?
Answer: 0 to 29%

Question: And the pest or weed control at 140 g/ha [2, 13]?
Answer: 30 to 44%

Question: What about the pest or weed control at 35 g/ha [2, 14] of the same compound?
Answer: 45 to 59%

Question: And the pest or weed control at 70 g/ha [2, 14]?
Answer: 75 to 84%

Question: And the pest or weed control at 140 g/ha [2, 14]?
Answer: 85 to 94%

Question: What does the source list for `Nc1c(F)c(-c2ccc3cc[nH]c3c2)nc(C(=O)O)c1Cl` [Compound 1.09]?
Answer: pest or weed control at 35 g/ha [1, 3]: 95 to 100%; pest or weed control at 70 g/ha [1, 3]: 95 to 100%; pest or weed control at 140 g/ha [1, 3]: 95 to 100%; pest or weed control at 35 g/ha [1, 4]: 95 to 100%; pest or weed control at 70 g/ha [1, 4]: 95 to 100%; pest or weed control at 140 g/ha [1, 4]: 95 to 100%; pest or weed control at 35 g/ha [1, 5]: 95 to 100%; pest or weed control at 70 g/ha [1, 5]: 95 to 100%; pest or weed control at 140 g/ha [1, 5]: 95 to 100%; pest or weed control at 35 g/ha [1, 6]: 95 to 100%; pest or weed control at 70 g/ha [1, 6]: 95 to 100%; pest or weed control at 140 g/ha [1, 6]: 95 to 100%; pest or weed control at 35 g/ha [1, 7]: 85 to 94%; pest or weed control at 70 g/ha [1, 7]: 95 to 100%; pest or weed control at 140 g/ha [1, 7]: 95 to 100%; pest or weed control at 35 g/ha [1, 8]: 95 to 100%; pest or weed control at 70 g/ha [1, 8]: 95 to 100%; pest or weed control at 140 g/ha [1, 8]: 95 to 100%; melting point: 138 to 140 °C; pest or weed control at 35 g/ha [2, 9]: 30 to 44%; pest or weed control at 70 g/ha [2, 9]: 75 to 84%; pest or weed control at 140 g/ha [2, 9]: 85 to 94%; pest or weed control at 35 g/ha [2, 10]: 95 to 100%; pest or weed control at 70 g/ha [2, 10]: 95 to 100%; pest or weed control at 140 g/ha [2, 10]: 95 to 100%; pest or weed control at 35 g/ha [2, 11]: 0 to 29%; pest or weed control at 70 g/ha [2, 11]: 0 to 29%; pest or weed control at 140 g/ha [2, 11]: 0 to 29%; pest or weed control at 35 g/ha [2, 12]: 85 to 94%; pest or weed control at 70 g/ha [2, 12]: 85 to 94%; pest or weed control at 140 g/ha [2, 12]: 85 to 94%; pest or weed control at 35 g/ha [2, 13]: 0 to 29%; pest or weed control at 70 g/ha [2, 13]: 0 to 29%; pest or weed control at 140 g/ha [2, 13]: 0 to 29%; pest or weed control at 35 g/ha [2, 14]: 60 to 74%; pest or weed control at 70 g/ha [2, 14]: 75 to 84%; pest or weed control at 140 g/ha [2, 14]: 75 to 84%

Question: For `COc1c(C(=O)O)nc(-c2ccc3cc[nH]c3c2F)c(F)c1N` [Compound 1.17], which pest or weed control at 35 g/ha [1, 3] is on record?
Answer: 45 to 59%

Question: What about the pest or weed control at 70 g/ha [1, 3] of the same compound?
Answer: 45 to 59%

Question: And the pest or weed control at 140 g/ha [1, 3]?
Answer: 60 to 74%

Question: What about the pest or weed control at 35 g/ha [1, 4] of the same compound?
Answer: 95 to 100%

Question: And the pest or weed control at 70 g/ha [1, 4]?
Answer: 95 to 100%

Question: What about the pest or weed control at 140 g/ha [1, 4] of the same compound?
Answer: 95 to 100%

Question: And the pest or weed control at 35 g/ha [1, 5]?
Answer: 95 to 100%

Question: And the pest or weed control at 70 g/ha [1, 5]?
Answer: 95 to 100%

Question: What about the pest or weed control at 140 g/ha [1, 5] of the same compound?
Answer: 95 to 100%

Question: What about the pest or weed control at 35 g/ha [1, 6] of the same compound?
Answer: 95 to 100%

Question: What about the pest or weed control at 70 g/ha [1, 6] of the same compound?
Answer: 95 to 100%

Question: What about the pest or weed control at 140 g/ha [1, 6] of the same compound?
Answer: 95 to 100%

Question: What about the pest or weed control at 35 g/ha [1, 7] of the same compound?
Answer: 95 to 100%

Question: And the pest or weed control at 70 g/ha [1, 7]?
Answer: 95 to 100%

Question: What about the pest or weed control at 140 g/ha [1, 7] of the same compound?
Answer: 95 to 100%

Question: What about the pest or weed control at 35 g/ha [1, 8] of the same compound?
Answer: 95 to 100%

Question: What about the pest or weed control at 70 g/ha [1, 8] of the same compound?
Answer: 95 to 100%

Question: What about the pest or weed control at 140 g/ha [1, 8] of the same compound?
Answer: 95 to 100%

Question: And the melting point?
Answer: 133 to 140 °C

Question: And the pest or weed control at 35 g/ha [2, 9]?
Answer: 45 to 59%

Question: And the pest or weed control at 70 g/ha [2, 9]?
Answer: 45 to 59%

Question: And the pest or weed control at 140 g/ha [2, 9]?
Answer: 45 to 59%

Question: What about the pest or weed control at 35 g/ha [2, 10] of the same compound?
Answer: 85 to 94%

Question: And the pest or weed control at 70 g/ha [2, 10]?
Answer: 85 to 94%

Question: And the pest or weed control at 140 g/ha [2, 10]?
Answer: 85 to 94%

Question: What about the pest or weed control at 35 g/ha [2, 11] of the same compound?
Answer: 0 to 29%

Question: What about the pest or weed control at 70 g/ha [2, 11] of the same compound?
Answer: 0 to 29%

Question: And the pest or weed control at 140 g/ha [2, 11]?
Answer: 0 to 29%

Question: And the pest or weed control at 35 g/ha [2, 12]?
Answer: 75 to 84%

Question: And the pest or weed control at 70 g/ha [2, 12]?
Answer: 85 to 94%

Question: And the pest or weed control at 140 g/ha [2, 12]?
Answer: 85 to 94%

Question: What about the pest or weed control at 35 g/ha [2, 13] of the same compound?
Answer: 60 to 74%

Question: And the pest or weed control at 70 g/ha [2, 13]?
Answer: 60 to 74%

Question: What about the pest or weed control at 140 g/ha [2, 13] of the same compound?
Answer: 60 to 74%

Question: What about the pest or weed control at 35 g/ha [2, 14] of the same compound?
Answer: 60 to 74%

Question: And the pest or weed control at 70 g/ha [2, 14]?
Answer: 75 to 84%

Question: And the pest or weed control at 140 g/ha [2, 14]?
Answer: 75 to 84%
